Data: US20130303539A1, “COMPOUNDS WITH TRPV4 ACTIVITY, COMPOSITIONS AND ASSOCIATED METHODS THEREOF” (priority 2012, published 2013)

Legend:
[1] = test system: retinal ganglion cells; assay: TUNEL assay of apoptotic cell death in retina; type: cell-based
Protocol: Terminal deoxynucleotidyl transferase-mediated dUTP-biotin nick end labeling (TUNEL) is a common method for detecting fragmentation that results from apoptotic signaling cascades. Retinas were embedded, cryosectioned, and processed for the TUNEL assay following the protocol by Gavrieli et al. (1992). After 30 min. rehydration in 70% ethanol, 2×5 min. rinses in PBS and 1% Triton-X in 1% citrate buffer (pH 7.3), the slides were subjected to a final rinse in PBS. Slides were then incubated for 30 min. in the reaction buffer (30 mM Trizma-HCl, 140 mM Na^+ cacodylate, 1.0 mM CaCl2, 0.2% Triton X-100, pH 7.2). Positive controls were treated with DNAse I (Roche Diagnostics; Branford, Conn.; 10 U/ml) in the reaction buffer. Next, slides were treated for 1 hour with 0.03 units/pi terminal transferase and 4 μM biotin-16-dUTP (Roche Diagnostics). The reaction was terminated in 30 mM Na+ citrate, 300 mM NaCl and 0.2% Triton X-100 in PBS (5 min.) and rinsed in PBS (2×5 min), exposed to 1% bovine serum albumin in PBS for 20 min and rinsed. Apoptotic cells were visualized with a confocal microscope (Zeiss LSM510) and categorized by size. […] This was blocked by RuR and by the TRPV4 antagonist Compound 1.

[2] = target: T1, TRPV4 (Homo sapiens, UniProt Q9HBA0); assay: Calcium imaging (fura-2) in human trabecular meshwork cells; type: cell-based; settings: bath application 100 nM, human TM cells, room temperature
T1 construct: endogenous in cells; host or cells: primary human trabecular meshwork cells from trabeculectomy tissue
Protocol: Pieces of tissue were isolated from a trabeculectomy. Trabecular meshwork cells (TM) were kept in cold L15 medium and then loaded with Fura-2 (10 μm) for 1 hour. Fibroblast-shaped cells were imaged from a TM chunk (˜500 μm×500 μm) with a 40× water immersion objective. The sampling rate was at 6 second intervals. Krebs Ringer Bicarbonate Recording buffer (7.4, 284 mOsm) was prepared as reported by Anthony et al., 1998, IOVS; Prostaglandin F2α receptors in the human trabecular meshwork.
Calcium imaging was performed on TM cells isolated from human patients. In brief, dissociated human TM cells embedded within the tissue were dissociated and plated on concanavalin A-coated (0.2 mg/ml; Sigma) coverslips, loaded with fura-2 AM ([…]; Invitrogen Life Technologies) for 15 min-1 hour and washed for 10 min in dye-free L-15 medium. […] Fluorescence emission was high-pass filtered at 510 nm and captured with cooled digital CCD cameras (HQ2, Photometrics). […] Fluorescence imaging was performed on regions of interest (ROIs) encompassing the TM cell somata, typically at 3×3 binning. Background fluorescence was measured in similarly sized ROIs in neighboring areas devoid of cells. After sequential image acquisition (0.167-0.5 Hz) of cell fluorescence at 340/380 nm, the background was subtracted. […]

[3] = test system: retinal ganglion cells; assay: In vivo intraocular injection of TRPV4 agonist GSK, NeuN+ RGC count; settings: 100-300 nM injected intraocularly, retinas isolated after 48 hours
Protocol: In this experiment, GSK (100-300 nM) was injected intraocularly with a Hamilton syringe. Retinas were isolated after 48 hours, fixed and labeled with the RGC marker antibody NeuN. NeuN-immunopositive somata in the ganglion cell layer, shown in the panel on the right, were counted. The bar graph represents quantification of NeuN^+ cells in the indicated experimental groups.

[4] = target: T2, TRPV4 (Mus musculus, UniProt Q9EPK8); assay: TRPV4 agonist GSK-evoked [Ca++]i in retinal Müller glial cells; type: cell-based; parameters: endogenous in cells; host or cells: retinal Müller glial cells
[5] = target: T2, TRPV4; assay: AGB cation influx into retinal cells (anti-AGB antibody); type: cell-based; parameters: these two cell types express TRPV4 channels in the mouse retina; from tissue; host or cells: mouse retina; settings: mouse retina
Protocol: FIG. 16 illustrates the effect of the TRPV4 agonist GSK on cation influx into mouse retinal cells of the mouse retina. The influx was determined using the anti-AGB antibody, as described by Marc RE (J Comp Neurol 407(1): 47-64, 1999). AGB is a membrane permeant cation that can flow through most known cation channels. Using an anti-AGB antibody, it can be determined where the cation flux occurs and, therefore, which cells are activated.

[6] = test system: Müller cells; assay: Arachidonic acid-induced [Ca2+]i in Müller cells; type: cell-based; settings: 10 μM, Müller cells
Protocol: This response is blocked by Compound 1 (1 μM).

[7] = test system: retinal neurons (RGCs) and glia (Müller cells); assay: Hypotonic stimuli: cell swelling (change in cell area) and [Ca++]i; type: cell-based; settings: osmolarity lowered from 300 mOsm to 190 mOsm
Source text: FIG. 18A illustrates the effect of hypotonic stimuli on cell swelling as measured by change in cell area. Hypotonic stimuli were generated by replacing extracellular sodium levels to lower osmolarity from 300 mOsm to 190 mOsm.

[8] = test system: MB model of glaucoma; assay: IOP time course after a single eye drop in the MB model of glaucoma; type: in vivo, mouse
Protocol: Specifically, microbeads (MBs) were injected into the anterior chamber of a mouse eye as described in Example 2 with PBS-injected eyes used as controls. Compound 1 (10 mg/kg body weight) (or PBS vehicle) was injected intraperitoneally (IP). […] IOP was measured in mice between 10:00 AM and 1:00 PM with the TonoLab rebound tonometer (Colonial Medical Supply, Franconia, NH/Tyolat, Helsinki, Finland). Mice were sedated with IP injection of Avertin with final amount calculated by weight (e.g., 0.5 ml for 21-24 g animals). Animals were placed on a jack stand platform and the tonolab was clamped on a ring stand and centered onto the mid-cornea. During measurements animal were neither restrained nor touched. Each eye was measured twenty consecutive times, the highest and lowest values were discarded and the values were averaged.
FIG. 9 illustrates the short-term effects of a single dose of Compound 1 (eye drop) in the MB model of glaucoma. IOP was measured as described in Example 3 at the indicated time points after receiving a drop of Compound 1. Compound 1 reduced IOP beginning at 1 hour after dosing and continued through 6 hours after dosing.
FIG. 10 illustrates a time course of Compounds 1, 2, 5 and Compound 2-HCl as well as a positive control compound, timolol, with regard to inhibition of IOP. The experiment was conducted as described in Example 9. Each of the TRPV4 antagonists reduced IOP with a similar time course. Specifically, Compounds 1, 2, 5 and Compound 2-HCl reduced IOP for at least 6 hours after dosing.
FIG. 11 illustrates a time course of Compound 2-HCl activity. The experiment was conducted as described in Example 9. […] 2
FIG. 12 illustrates a comparison of the time course of Compound 2-HCl and Compound 5. The experiment was conducted as described in Example 9.

T2 sequence (Q9EPK8 whole entry): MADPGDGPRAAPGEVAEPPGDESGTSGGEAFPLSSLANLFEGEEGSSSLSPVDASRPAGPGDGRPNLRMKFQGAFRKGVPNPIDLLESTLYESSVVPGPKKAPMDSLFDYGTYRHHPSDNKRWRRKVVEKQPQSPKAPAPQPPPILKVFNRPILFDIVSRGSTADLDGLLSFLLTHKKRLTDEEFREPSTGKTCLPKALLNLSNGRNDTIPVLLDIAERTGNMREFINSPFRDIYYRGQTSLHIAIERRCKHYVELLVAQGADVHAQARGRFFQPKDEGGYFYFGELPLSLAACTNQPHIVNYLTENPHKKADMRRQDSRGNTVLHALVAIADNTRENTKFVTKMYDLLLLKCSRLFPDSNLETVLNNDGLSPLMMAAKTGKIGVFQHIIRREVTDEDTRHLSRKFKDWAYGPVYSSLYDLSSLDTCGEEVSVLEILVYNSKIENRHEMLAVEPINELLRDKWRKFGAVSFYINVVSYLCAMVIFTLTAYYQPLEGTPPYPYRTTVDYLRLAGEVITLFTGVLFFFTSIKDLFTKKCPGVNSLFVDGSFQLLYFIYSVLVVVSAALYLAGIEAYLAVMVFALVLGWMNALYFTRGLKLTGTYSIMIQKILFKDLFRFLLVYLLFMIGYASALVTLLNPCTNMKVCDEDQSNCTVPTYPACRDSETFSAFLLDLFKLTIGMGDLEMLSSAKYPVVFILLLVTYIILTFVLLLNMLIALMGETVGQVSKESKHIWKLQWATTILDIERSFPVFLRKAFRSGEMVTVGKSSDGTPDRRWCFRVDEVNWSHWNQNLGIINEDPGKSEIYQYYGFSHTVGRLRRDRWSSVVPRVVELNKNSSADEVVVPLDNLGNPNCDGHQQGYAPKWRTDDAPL
T1 sequence (Q9HBA0 whole entry): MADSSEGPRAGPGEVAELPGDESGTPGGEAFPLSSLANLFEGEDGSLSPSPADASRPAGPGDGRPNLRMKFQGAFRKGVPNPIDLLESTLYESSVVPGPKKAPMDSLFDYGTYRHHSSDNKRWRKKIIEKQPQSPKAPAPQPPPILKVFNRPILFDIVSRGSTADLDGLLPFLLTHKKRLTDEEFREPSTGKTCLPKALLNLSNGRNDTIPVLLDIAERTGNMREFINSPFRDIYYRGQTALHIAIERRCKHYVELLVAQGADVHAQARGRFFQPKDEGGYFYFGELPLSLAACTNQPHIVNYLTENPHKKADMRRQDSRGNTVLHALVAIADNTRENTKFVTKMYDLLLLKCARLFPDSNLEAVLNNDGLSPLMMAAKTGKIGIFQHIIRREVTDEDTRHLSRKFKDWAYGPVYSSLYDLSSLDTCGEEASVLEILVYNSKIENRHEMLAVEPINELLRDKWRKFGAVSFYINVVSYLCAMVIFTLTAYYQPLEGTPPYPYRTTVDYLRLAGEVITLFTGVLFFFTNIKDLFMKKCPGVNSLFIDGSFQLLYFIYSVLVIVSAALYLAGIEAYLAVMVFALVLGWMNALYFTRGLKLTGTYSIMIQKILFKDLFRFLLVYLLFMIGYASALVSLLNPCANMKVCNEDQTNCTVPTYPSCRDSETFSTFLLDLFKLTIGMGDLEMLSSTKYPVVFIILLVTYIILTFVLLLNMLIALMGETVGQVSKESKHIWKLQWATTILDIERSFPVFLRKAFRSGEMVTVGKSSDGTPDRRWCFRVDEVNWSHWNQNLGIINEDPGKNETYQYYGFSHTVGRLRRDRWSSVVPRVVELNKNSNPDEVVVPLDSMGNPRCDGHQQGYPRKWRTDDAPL

`N.N.N.N.N.N.N.N.N.N.N.N.N.N.[Cl-].[Cl-].[Cl-].[Cl-].[Cl-].[Cl-].[O-2].[O-2].[Ru+3].[Ru+3].[Ru+4]` [Ruthenium Red] was tested, and the “apoptotic cell death (TUNEL) induced by hypotonic swelling” value ([1]; 190 mOsm saline, Compound 1 1 uM, RuR 10 μM) was “block apoptotic cell death” and the “apoptotic cell death (TUNEL) induced by the TRPV4 agonist GSK” value ([1]; GSK 100 nM, Compound 1 1 uM, RuR 10 μM) was “block apoptotic cell death”.

In the case of `CC(C)C[C@H](NC(=O)c1cc2ccccc2s1)C(=O)N1CCN(C(=O)[C@H](CO)NS(=O)(=O)c2ccc(Cl)cc2Cl)CC1` [GSK1016790A, reference compound], the “340/380 fluorescence ratio (intracellular calcium concentration [Ca++]i)” value [2] is reported as “increased 340/380 fluorescence ratio”, the “number of retinal ganglion cells (NeuN+ somata), agonist effect” value [3] is reported as “substantially reduces the number of retinal ganglion cells” and the “death of retinal ganglion cells (increased TUNEL staining), agonist effect” value ([1]; 100 nM) is reported as “induced death of retinal ganglion cells”. The “intracellular calcium concentration [Ca++]i, agonist effect” value [4] was “evokes sustained increases in intracellular calcium concentration” and the “number of AGB+ cells (cation influx), agonist effect” value [5] was “increased the number of AGB^+ retinal ganglion cells and Müller glial cells”.

In the case of `CCCCC/C=C\C/C=C\C/C=C\C/C=C\CCCC(=O)O` [arachidonic acid, reference compound], the “[Ca2+]i response” value [6] is reported as “increase in [Ca2+]i”.

`CC(=O)OCOC(=O)CN(CC(=O)OCOC(C)=O)c1ccccc1OCCOc1ccccc1N(CC(=O)OCOC(C)=O)CC(=O)OCOC(C)=O` [BAPTA-AM, reference compound] was tested, and the “cell swelling (change in cell area)” value [7] was “significantly reduced”.

`CC(C)(C)NC[C@H](O)COc1nsnc1N1CCOCC1` [timolol, reference compound] was tested, and the “inhibition of IOP, curve relative to the exemplary TRPV4 antagonists” value ([8]; positive control, eye drop) was “left-shifted dose-response curve”.

With `Cc1c(C(=O)Nc2cccc(C(=O)OC(C)C)c2)cc(-c2ccccc2)n1CCCN1CCOCC1.Cl` [Compound 2-HCl, iso-propyl 3-(2-methyl-1-(3-morpholinopropyl)-5-phenyl-1H-pyrrole-3-carboxamido)benzoate hydrochloride] the “time of maximal inhibition of IOP after dosing” value ([8]; single dose eye drop) was 6 h and the “time until IOP reached pre-dose levels” value ([8]; single dose eye drop, post-dosing) was 33 h.
